Each block holds one molecule with its values, some of them ahead of it.
Assays:
[1] = glass transition temperature (Tg) of the drug; format: physicochemical; settings: for Tg: Table B, unless noted Tg measured at less than 10% RH
Procedure: In a first aspect, the invention comprises a solid composition comprising a plurality of particles. The particles comprise a low-solubility drug and a poloxamer. The drug is in intimate contact with the poloxamer in the particles. Collectively, the drug and poloxamer constitute at least 50 wt % of the particles. At least a substantial portion of the drug in the composition is amorphous. The Tg of the drug is at least 50° C. Unless otherwise noted, as used herein the Tg refers to the Tg measured at less than 10% RH.
Such Tg values may represent that of drug dispersed in the amorphous portions of the poloxamer or the Tg of drug-rich phases or domains. […] The Tg of the drug may be at least about 60° C., at least about 70° C., or even at least about 80° C. The Tg of a drug can be determined using standard analytical techniques well known in the art, including by a dynamic mechanical analyzer (DMA), a dilatometer, a dielectric analyzer, and by differential scanning calorimetry (DSC).

[2] = in vitro dissolution test of Drug 4 compositions in PBS; format: physicochemical; settings: for AUC / Drug 4 Concentration: 1000 μg/mL if all dissolved; for Drug 4 Concentration: 37° C.
Procedure: The solid compositions of Examples 1-2 were evaluated in an in vitro dissolution test to ascertain concentration enhancement of Drug 1. A […] sample of each solid composition was added in duplicate to a microcentrifuge tube, so that the total concentration of Drug 1 would have been 2000 μg/mL if all of the drug had dissolved. The tubes were placed in a 37° C. temperature-controlled chamber, and 1.8 mL PBS containing 0.5 wt % sodium taurocholic acid and 1-palmitoyl-2-oleyl-sn-glycero-3-phosphocholine (NaTC/POPC, with a 4/1 weight ratio) at pH 6.5 and 290 mOsm/kg (simulating a Model Fasted Duodenal solution) was added to each respective tube. The samples were quickly mixed using a vortex mixer for about 60 seconds. The samples were centrifuged at 13,000 G at 37° C. for 1 minute. The resulting supernatant solution was then sampled and diluted 1:6 (by volume) with methanol and then analyzed by high-performance liquid chromatography (HPLC). The contents of each respective tube were mixed on a vortex mixer and allowed to stand undisturbed at 37° C. until the next sample was taken. Samples were collected at 4, 10, 20, 40, 90, and 1200 minutes.
The solid compositions of Examples 10-13 were evaluated in an in vitro dissolution test as in Examples 1-2, except that the dissolution medium was PBS. The amount of each composition added to the microcentrifuge tube was adjusted so that the concentration of Drug 4 in solution if all of the drug had dissolved was 1000 μg/mL.
The spray-dried compositions of Examples 14-15 were evaluated in an in vitro dissolution test as in Examples 10-13. The amount of each composition added to the microcentrifuge tube was adjusted so that the concentration of Drug 4 in solution if all of the drug had dissolved was […].
This composition was evaluated in an in vitro dissolution test as in Examples 10-13.

Molecule: 4-[3-[4-(2-methylimidazol-1-yl) phenylthio] phenyl]-3,4,5,6-tetrahydro-2H-pyran-4-carboxamide hemifumarate
Tg [1]: 81 °C

Tg [1]: 53 °C
Molecule: O=C(O)c1ccc(C(F)(F)F)cc1-c1ccc2c(c1)OCC(Cc1ccccc1)C2O (single isomer, unassigned; (+)) [(+)-2-(3-benzyl-4hydroxy-chroman-7-yl)-4-trifluoromethyl-benzoic acid]

Tg [1]: 80 °C
Molecule: CON(C)C(=O)C(O)[C@H](Cc1ccccc1)NC(=O)c1cc2cc(Cl)ccc2[nH]1 (stereo in doubt) [[R—(R*,S*)]-5-chloro-N-[2-hydroxy-3-[(methoxymethylamino)-3-oxo-1-(phenylmethyl)propyl]propyl]-1H-indole-2-carboxamide]

Molecule: CC(C)c1c(C(=O)Nc2ccccc2)c(-c2ccccc2)c(-c2ccc(F)cc2)n1CCC(O)CC(O)CC(=O)[O-].CC(C)c1c(C(=O)Nc2ccccc2)c(-c2ccccc2)c(-c2ccc(F)cc2)n1CCC(O)CC(O)CC(=O)[O-].O.O.O.[Ca+2] (stereo not drawn) [2-(4-fluorophenyl)-beta, delta-dihydroxy-5-(1-methylethyl)-3-phenyl-4-[(phenylamino)carbonyl]-1H-pyrrole-1-heptanoic acid, calcium salt (2:1), trihydrate]
Tg [1]: 111 °C

Tg [1]: 143 °C
Molecule: C[C@@H]1CC[C@@]2(OC1)O[C@H]1C[C@H]3[C@@H]4CC[C@H]5C[C@@H](O[C@@H]6O[C@H](CO)[C@@H](O[C@@H]7O[C@H](COC(=O)Nc8ccccc8F)[C@@H](OC(=O)Nc8ccccc8F)[C@H](O)[C@H]7O)[C@H](O)[C@H]6O)CC[C@]5(C)[C@H]4CC(=O)[C@]3(C)[C@H]1[C@@H]2C [3-[(4-O-{4,6-bis(2-flurophenylcarbamoyl)]-β-D-glucopyranolsyl-)β-D-flucopyranosyl]oxy-(3β,5α,25R)-spirostan-12-one]

Tg [1]: 91 °C
Molecule: O=C(NC(Cc1ccccc1)C(=O)N1CC(O)C1)c1cc2cc(Cl)ccc2[nH]1 (centres unmarked) [5-chloro-1H-indole-2-carboxylic acid [(1)-benzyl-2-(3-hydroxy-azetidin-1-yl)-2-oxo-ethyl]-amide]

Tg [1]: 112 °C
Molecule: Cl.Cl.O=C(O)COCCN1CCN(C(c2ccccc2)c2ccc(Cl)cc2)CC1 (centres unmarked) [(2(-(4-((4-chlorophenyl)phenylmethyl)-1-piperazinyl)ethoxy)acetic acid, dihrochloride]

Molecule: CCOC(=O)N1c2ccc(C(F)(F)F)cc2[C@@H](N(Cc2cc(C(F)(F)F)cc(C(F)(F)F)c2)C(=O)OC)C[C@H]1CC [Control C6, Torcetrapib]
Cmax90 ([2]; Drug 4, initial 90 minutes): <1000 ng/mL
AUC90 ([2]; Drug 4, initial 90 minutes, Table 12): < 1470 ng·h/mL
AUC90 ([2]; Drug 4, initial 90 minutes, Table 15): <88 min-μg/mL
AUC90 ([2]; Drug 4, initial 90 minutes, Table 18): <1470 ng·h/mL
AUC ([2]; Drug 4, time 0 min): 0 min-μg/mL
AUC ([2]; Drug 4, time 4 min): <2 min-μg/mL
AUC ([2]; Drug 4, time 10 min): <8 min-μg/mL
AUC ([2]; Drug 4, time 20 min): <18 min-μg/mL
AUC ([2]; Drug 4, time 40 min): <38 min-μg/mL
AUC ([2]; Drug 4, time 90 min): <88 min-μg/mL
AUC ([2]; Drug 4, time 1200 min): <1,200 min-μg/mL
Drug 4 Concentration ([2]; time 0 min): 0 µg/mL
Drug 4 Concentration ([2]; time 4 min): <1 µg/mL
Drug 4 Concentration ([2]; time 10 min): <1 µg/mL
Drug 4 Concentration ([2]; time 20 min): <1 µg/mL
Drug 4 Concentration ([2]; time 40 min): <1 µg/mL
Drug 4 Concentration ([2]; time 90 min): <1 µg/mL
Drug 4 Concentration ([2]; time 1200 min): <1 µg/mL

Tg [1]: 96 °C
Tg,drug ([1]; at ambient RH): 113 °C
Molecule: O=C(N[C@@H](Cc1ccccc1)[C@@H](O)C(=O)N1C[C@@H](O)[C@@H](O)C1)c1cc2cc(Cl)ccc2[nH]1 [Drug 1, 5-chloro-1H-indole-2-carboxylic acid [(1S)-benzyl-(2R)-hydroxy-3-((3R,4S)-dihydroxy-pyrrolidin-1-yl-)-3-oxypropyl]amide]

Tg [1]: 72 °C
Molecule: O=C1Cc2cc(CCN3CCN(c4nsc5ccccc45)CC3)c(Cl)cc2N1 [Ziprasidone]

Tg [1]: 87 °C
Molecule: CCC(CC)Nc1cc(C)nc(Oc2c(C)cc(C)cc2C)c1C.Cl [[3,6-dimethyl-2-(2,4,6-trimethyl-phenoxy)-pyridin-4-yl]-(1-ethyl-propyl)-amine hydrochloride]

— US8974823B2, “Solid compositions of low-solubility drugs and poloxamers” (Bend Research, Inc., priority 2003, dated 2015)
